We go through two compounds from patent US10450299B2, “Substituted quinazoline derivatives as DNA methyltransferase inhibitors” (Pierre Fabre Medicament, priority 2015, dated 2019).

Data set [1] has as its target T1, human C-terminal DNMT3A (a.a. 623-908) (Homo sapiens, UniProt Q9Y6K1).
T1 construct: The human C-terminal DNMT3A (a.a. 623-908); made in house
As to the kind of experiment: DNMT3A assay (restriction-based fluorescence assay). Particulars: for inhibition at 1 µM: compound at 1 μM; for inhibition at 3.2 µM: compound at 3.2 μM. The format is biochemical. The source says: DNMT3A enzyme inhibition was adapted from the restriction-based fluorescence assay protocol described in Ceccaldi et al. (ChemBioChem 2011, 12, 1337-45). Briefly, a 5′-labelled biotin oligonucleotide is hybridized to its complementary strand labelled with 6-carboxyfluorescein at the 3′-end into a 384 well microplate (black Optiplates; Perkin Elmer) pre-coated with avidin. The duplex contains a unique CpG site overlapping with a restriction site of a methylation sensitive restriction enzyme. The human C-terminal DNMT3A (a.a. 623-908), produced as described in Gros et al. (Nucleic Acids Research 2013 41(19):e185), was added in each well (200 ng/well) and mixed with the chemical compounds at desired concentrations and freshly prepared AdoMet (20 μM final concentration) to start the reaction in a total volume of 50 μL. After 1 hour incubation at 37° C. each well were washed three times with PBS, Tween-20 0.05%, NaCl (500 mM) and three more times with PBST. Specific fluorescent signals were detected with the methylation-sensitive restriction enzyme HpyCH4IV (NEB) as described and measured on a Perkin Elmer Envision detector. The percentage of inhibition is reported. The formula used to calculate the percentage of inhibition is [(X−Y)/X]×100, where X is the signal determined in the absence of the inhibitor and Y is the signal obtained in the presence of the inhibitor. The concentration at which 50% of efficacy of inhibition is observed (EC50) was determined by analysis of a concentration range of the tested compound in triplicates. The non-linear regression fittings with sigmoidal dose-response (variable slope) were performed with GraphPad Prism 4.03 (GraphPad Software).

Data set [2] concerns luciferase reporter gene under the control of the partially methylated CMV promoter in KG-1 cell line. As to the kind of experiment: Gene expression (CMV-Luc reactivation) in KG-1 cells. The format is cell-based, human. Particulars: 24 h, induction factor vs DMSO control, mean of 3 experiments ± standard error; for Reactivation fold of luciferase gene reporter, 0.1 μM: compound at 0.1 μM; for Reactivation fold of luciferase gene reporter, 1 μM: compound at 1 μM; for Reactivation fold of luciferase gene reporter, 5 μM: compound at 5 μM; for Reactivation fold of luciferase gene reporter, 10 μM: compound at 10 μM. As for the experimental part:
Gene Expression. (CMV-Luc Reactivation)
KG-1 cell line, stably transfected with the luciferase Firefly (Luc+ from pGL3 by Promega) reporter gene under the control of the CMV promoter (from pEGFP-N1 by Clontech) partially methylated (50%), is seeded at 20,000 cell per well in 96-well plate. After 24 h of incubation in the presence of the compounds or the solvant DMSO, the induction of the promoter is measured by quantification of luciferase with the Brite-lite™ assay system (Perkin Elmer) according to the manufacturer protocol. The luminescence is measured on EnVision™ Multilabel Plate Reader (Perkin Elmer) and the data are expressed in induction factor compared to the DMSO control condition.

The test system of data set [3] is KG-1 human leukemia cells. As to the kind of experiment: Anti-proliferative activity on KG-1 (ATPLite cell viability). The format is cell-based. Particulars: KG-1 cells; for inhibition at 0.1 µM: compound at 0.1 μM, read-out: % proliferation inhibition 0.1 μM; for inhibition at 1 µM: compound at 1 μM, read-out: % proliferation inhibition 1 μM; for inhibition at 5 µM: compound at 5 μM, read-out: % proliferation inhibition 5 μM; for inhibition at 10 µM: compound at 10 μM, read-out: % proliferation inhibition 10 μM. The protocol: Anti-Proliferative Activity. (on KG-1)
KG-1 human leukemia cells were obtained from the ATCC (USA) and cultivated in RPMI 1640 medium (with HEPES and Glutamine, BE12-115F, Lonza, France) supplemented with, respectively, 20% and 15% foetal calf serum (Lonza, France), at 37° C. and under 5% CO2. To measure the anti-proliferative properties of tested molecules, 2×10^4 cells are seeded at day 0 in a 96 wells plate. The compounds to be tested, stored at −20° C. as 10^−2 M stock solution in 100% DMSO, are freshly diluted on day 1 in RPMI 1640 medium, before adding a dose range of 3.2 nM to 10 μM to the cells. This treatment is repeated on day 2 and 3, and on day 4 cell viability is assessed using the ATPLite™ kit from Perkin (ATPlite™ 1 Step Luminescence Assay System, ref 3016739), following the provider instructions. The raw data are analyzed with GraphPad Prism software (v4.03) to generate EC50 values corresponding to the compound concentrations giving 50% reduction in cell viability. The values presented are the mean results of at least two independent experiments. […]
At the end of the experiment, cell viability was evaluated by determining the level of ATP released by viable cells.
EC50 values were determined with curve fitting analysis method (non linear regression model with a sigmoid dose response, variable Hill slope coefficient) provided by the Prism Software (GraphPad). Results were expressed as average EC50 values (concentration of tested compound that inhibits 50% of the maximum effect for the considered compound).
In general terms: Cellular ATP, detected with luciferase, serves as a proxy for viable cell number.

The target of data set [4] is T2, His-DNMT1 (182 kDa, human) (Homo sapiens, UniProt P26358).
T2 construct: His; made in house
T2 sequence (P26358 whole entry): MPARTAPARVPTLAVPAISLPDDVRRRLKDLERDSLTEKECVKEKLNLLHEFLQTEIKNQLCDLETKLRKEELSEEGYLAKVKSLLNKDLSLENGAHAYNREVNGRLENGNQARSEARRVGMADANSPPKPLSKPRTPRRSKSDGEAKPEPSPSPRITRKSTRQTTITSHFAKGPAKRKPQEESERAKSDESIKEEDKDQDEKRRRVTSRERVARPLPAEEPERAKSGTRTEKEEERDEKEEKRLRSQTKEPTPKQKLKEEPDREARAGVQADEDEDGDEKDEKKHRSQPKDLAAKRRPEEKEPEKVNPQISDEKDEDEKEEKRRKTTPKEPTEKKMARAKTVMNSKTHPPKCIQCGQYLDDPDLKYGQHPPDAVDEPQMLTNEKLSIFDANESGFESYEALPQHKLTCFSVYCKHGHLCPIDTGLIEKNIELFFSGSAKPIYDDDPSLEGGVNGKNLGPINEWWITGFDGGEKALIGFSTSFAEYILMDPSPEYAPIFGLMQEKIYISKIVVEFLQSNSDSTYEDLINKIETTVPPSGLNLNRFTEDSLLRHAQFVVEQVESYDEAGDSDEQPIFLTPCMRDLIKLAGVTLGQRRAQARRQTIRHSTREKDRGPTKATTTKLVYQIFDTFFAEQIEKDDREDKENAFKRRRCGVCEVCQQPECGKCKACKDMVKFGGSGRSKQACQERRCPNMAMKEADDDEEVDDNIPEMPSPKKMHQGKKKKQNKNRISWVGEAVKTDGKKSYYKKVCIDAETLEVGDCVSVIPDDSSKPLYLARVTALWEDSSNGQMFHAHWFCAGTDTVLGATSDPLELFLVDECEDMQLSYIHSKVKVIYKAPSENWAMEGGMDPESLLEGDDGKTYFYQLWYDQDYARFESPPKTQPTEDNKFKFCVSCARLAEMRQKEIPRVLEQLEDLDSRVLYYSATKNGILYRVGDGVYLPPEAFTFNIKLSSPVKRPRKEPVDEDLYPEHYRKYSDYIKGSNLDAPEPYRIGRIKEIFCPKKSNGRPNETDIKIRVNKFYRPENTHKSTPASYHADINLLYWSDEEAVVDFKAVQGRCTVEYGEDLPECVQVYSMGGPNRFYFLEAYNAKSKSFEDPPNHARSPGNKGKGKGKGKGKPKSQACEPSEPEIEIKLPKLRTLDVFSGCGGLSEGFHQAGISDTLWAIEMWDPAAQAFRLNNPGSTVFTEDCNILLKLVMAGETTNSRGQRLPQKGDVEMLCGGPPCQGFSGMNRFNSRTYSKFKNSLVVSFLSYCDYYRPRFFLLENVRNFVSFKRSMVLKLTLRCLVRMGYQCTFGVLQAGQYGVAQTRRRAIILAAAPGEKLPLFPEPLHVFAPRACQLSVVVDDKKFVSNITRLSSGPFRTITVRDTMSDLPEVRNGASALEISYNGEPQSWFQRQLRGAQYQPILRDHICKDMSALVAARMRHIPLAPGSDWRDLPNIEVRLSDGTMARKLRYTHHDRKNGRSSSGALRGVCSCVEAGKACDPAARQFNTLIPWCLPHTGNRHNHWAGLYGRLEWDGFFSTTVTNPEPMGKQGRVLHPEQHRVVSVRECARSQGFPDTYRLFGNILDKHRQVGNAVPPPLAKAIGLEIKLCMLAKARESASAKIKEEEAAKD
As to the kind of experiment: DNMT1 assay (tritiated SAM Flashplate methylation assay). The class given is biochemical. Particulars: for inhibition at 10 µM: compound at 10 μM; for inhibition at 32 µM: compound at 32 μM. As for the experimental part:
His-DNMT1 (182 kDa, human) was cloned, expressed and purified as described in Halby et al. (ChemBioChem 2012, 13, 157-65). The reaction was performed in a 10 μL total reaction volume in low volume NBS™ 384-well microplates (Corning), containing the tested compound (up to 1% DMSO), 1 μM of a SAM/[methyl-^3H] SAM (3 TBq/mmol, PerkinElmer) mix in a ratio of 3-to-1 (isotopic dilution 1*:3), 0.3 μM of biotinylated hemimethylated DNA duplex (5′-GATmCGCmCGATGmCGmCGAATmCGmCGATmCGATGmCGAT-3′ and BIOT-5′-[…]-3′), and 90 nM of DNMT1 in methylation buffer (20 mM HEPES pH 7.2, 1 mM EDTA, 50 mM KCl, 25 μg/mL BSA). The reaction was incubated at 37° C. for 2 hours. 8 μL are then transferred into a streptavidin 96-well scintillant coated Flashplate™ (PerkinElmer) containing 190 μL of 20 μM SAH in 50 mM Tris-HCl pH 7.4. The Flashplate™ was agitated at room temperature for 1 hour, washed three times with 200 μL of 0.05% Tween®-20 in 50 mM Tris-HCl pH 7.4, and read in 200 μL of 50 mM Tris-HCl pH 7.4 on TopCount NXT™ (PerkinElmer).

T1 sequence (Q9Y6K1 627-912): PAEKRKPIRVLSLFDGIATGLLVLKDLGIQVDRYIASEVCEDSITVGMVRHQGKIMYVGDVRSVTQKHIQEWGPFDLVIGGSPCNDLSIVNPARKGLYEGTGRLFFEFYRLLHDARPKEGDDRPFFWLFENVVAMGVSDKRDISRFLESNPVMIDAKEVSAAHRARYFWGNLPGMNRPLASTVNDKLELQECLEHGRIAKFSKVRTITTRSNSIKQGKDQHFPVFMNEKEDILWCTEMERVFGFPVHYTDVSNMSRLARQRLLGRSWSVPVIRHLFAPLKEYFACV

For `c1ccc(CN2CCC(Nc3nc(N4CCN(c5ccccc5)CC4)nc4cc(OCC5CCN(CCNc6ccnc7ccccc67)CC5)ccc34)CC2)cc1` [Compound G, N-(1-benzylpiperidin-4-yl)-2-(4-phenylpiperazin-1-yl)-7-((1-(2-(quinolin-4-ylamino)ethyl)piperidin-4-yl)methoxy)quinazolin-4-amine], the melting point (as a rule, the temperature of the solid-liquid transition) is 122 to 124 °C. Also, in data set [1], the inhibition at 1 µM is 57% and the inhibition at 3.2 µM turned out to be 95%. Moreover, in data set [2], the “Reactivation fold of luciferase gene reporter, 0.1 μM” value amounted to 1.1 ± 0.0 fold; the “Reactivation fold of luciferase gene reporter, 1 μM” value is given as 5.3 ± 0.4 fold; the “Reactivation fold of luciferase gene reporter, 5 μM” value is 0.2 ± 0.1 fold; the “Reactivation fold of luciferase gene reporter, 10 μM” value is listed as 0.0 ± 0.0 fold. Moreover, in data set [3], the inhibition at 0.1 µM was -2.2%, the inhibition at 1 µM came out at 32.2%, the inhibition at 5 µM was 99.6% and the inhibition at 10 µM is 99.8%. Further, in data set [4], it took 10 µM to reach a half-maximal effect (EC50), the inhibition at 10 µM is 54% and the inhibition at 32 µM was 100%.

Turning to `COc1cc2c(NC3CCN(Cc4ccccc4)CC3)nc(N3CCN(c4ccccc4)CC3)nc2cc1OCC1CCN(CCNc2ccnc3ccccc23)CC1` [E, N-(1-benzylpiperidin-4-yl)-6-methoxy-2-(4-phenylpiperazin-1-yl)-7-((1-(2-(quinolin-4-ylamino)ethyl)piperidin-4-yl)methoxy)quinazolin-4-amine], the melting point was in the range of 124 to 126 °C. In data set [1], the EC50 (in general, the concentration at which the effect is half-maximal) stood at 0.6 µM; the inhibition at 1 µM stood at 74%; the inhibition at 3.2 µM was 100%. Also, in data set [2], the “Reactivation fold of luciferase gene reporter, 0.1 μM” value amounted to 1.1 ± 0.0 fold; the “Reactivation fold of luciferase gene reporter, 1 μM” value was determined as 3.5 ± 0.0 fold; the “Reactivation fold of luciferase gene reporter, 5 μM” value turned out to be 1.3 ± 1.2 fold; the “Reactivation fold of luciferase gene reporter, 10 μM” value came to 0.0 ± 0.0 fold. In addition, the 50% effective concentration (EC50) in data set [3] (96 h, treatment on days 1-3, viability on day 4 (ATPLite)) amounted to 2.5 µM. In data set [3], the inhibition at 0.1 µM is -2.3%, the inhibition at 1 µM amounted to 15.4%, the inhibition at 5 µM was determined as 92.1% and the inhibition at 10 µM amounted to 99.8%. For the same compound, in data set [4], it took 10 µM to reach a half-maximal effect (EC50), the inhibition at 10 µM worked out at 59% and the inhibition at 32 µM was 100%.
